Results: ChEMBL document CHEMBL1143457, “Benzyl ether structure-activity relationships in a series of ketopiperazine-based renin inhibitors” (Bioorg Med Chem Lett, 2005)
Values after ≈ are worked out from the molar mass of the structure shown.

Tests used:
Renin = target: T1, Renin (Homo sapiens, UniProt P00797); experiment: Inhibitory activity against renin in fluorescent tGFP assay
T1 sequence (P00797 whole entry): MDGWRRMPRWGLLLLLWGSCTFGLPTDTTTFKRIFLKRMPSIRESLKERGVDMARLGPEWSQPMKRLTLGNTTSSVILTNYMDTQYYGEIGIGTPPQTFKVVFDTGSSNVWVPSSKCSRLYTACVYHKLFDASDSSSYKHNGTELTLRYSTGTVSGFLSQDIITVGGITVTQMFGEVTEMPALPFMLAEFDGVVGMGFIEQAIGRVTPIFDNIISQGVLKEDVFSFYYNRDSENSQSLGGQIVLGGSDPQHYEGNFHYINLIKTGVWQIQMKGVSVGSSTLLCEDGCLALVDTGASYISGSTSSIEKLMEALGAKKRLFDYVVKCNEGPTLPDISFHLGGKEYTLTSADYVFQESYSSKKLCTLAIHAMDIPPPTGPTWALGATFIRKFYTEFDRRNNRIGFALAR

[1] = Apparent solubility was measured at PH 6.5 by nepholometric method; type: ADME; conditions: buffer
[2] = Distribution coefficient at PH 7.4 was determined; type: physicochemical; conditions: octanol/water
CYP3A4 = CYP3A4 (Homo sapiens, UniProt P08684); experiment: Inhibition of CYP3A4 at 3 uM was measured using fluorogenic substrate 7-Benzyloxy-4-(trifluoromethyl)-coumarin; type: ADME; conditions: probe 7-Benzyloxy-4-(trifluoromethyl)-coumarin
Chain of CYP3A4 (P08684 whole entry): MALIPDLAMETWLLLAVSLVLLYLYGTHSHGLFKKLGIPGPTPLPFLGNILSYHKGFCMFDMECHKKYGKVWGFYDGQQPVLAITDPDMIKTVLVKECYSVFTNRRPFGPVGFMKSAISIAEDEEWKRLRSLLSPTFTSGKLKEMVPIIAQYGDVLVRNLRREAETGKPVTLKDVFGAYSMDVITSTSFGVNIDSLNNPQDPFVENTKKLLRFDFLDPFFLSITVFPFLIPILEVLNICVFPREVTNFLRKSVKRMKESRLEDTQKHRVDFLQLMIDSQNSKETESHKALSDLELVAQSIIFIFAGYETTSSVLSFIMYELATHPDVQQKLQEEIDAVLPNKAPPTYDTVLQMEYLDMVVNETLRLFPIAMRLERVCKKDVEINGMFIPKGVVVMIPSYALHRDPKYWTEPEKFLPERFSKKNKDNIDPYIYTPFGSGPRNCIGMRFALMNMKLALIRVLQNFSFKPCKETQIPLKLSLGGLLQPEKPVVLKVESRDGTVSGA

SMILES	IC50 (Renin)	other results
COc1ccccc1COCCCOc1ccc(N2C(=O)CNC[C@@H]2COCc2cc(F)cc(F)c2)cc1	1.6 µM	
COc1ccccc1COCCCOc1ccc(N2C(=O)CNC[C@@H]2COCc2cc(Cl)cc(Cl)c2)cc1	0.18 µM	
COc1ccccc1COCCCOc1ccc(N2C(=O)CNC[C@@H]2COCc2ccccc2C(F)(F)F)cc1	0.27 µM	
COc1ccccc1COCCCOc1ccc(N2C(=O)CNC[C@@H]2COCc2ccc(F)c(C(F)(F)F)c2)cc1	0.14 µM	solubility kinetic [1]: 7 µg/mL (≈ 12.1 µM); logD [2]: 3.7; inhibition at 3 µM (CYP3A4): 87%
COc1ccccc1COCCCOc1ccc(N2C(=O)CNC[C@@H]2COCc2ccc(C(F)(F)F)cc2)cc1	6.8 µM	
COc1ccccc1COCCCOc1ccc(N2C(=O)CNC[C@@H]2COCc2ccc(C)c(Cl)c2)cc1	0.26 µM	
COc1ccccc1COCCCOc1ccc(N2C(=O)CNC[C@@H]2COCc2ccc(F)cc2Cl)cc1	0.41 µM	
COc1ccccc1COCCCOc1ccc(N2C(=O)CNC[C@@H]2COCc2ccc(F)c(C)c2)cc1	0.27 µM	
COc1ccccc1COCCCOc1ccc(N2C(=O)CNC[C@@H]2COCc2cccc(Cl)c2)cc1	0.33 µM	
COc1ccccc1COCCCOc1ccc(N2C(=O)CNC[C@@H]2COCc2cccc(C#N)c2)cc1	1.2 µM	
COc1ccccc1COCCCOc1ccc(N2C(=O)CNC[C@@H]2COCc2ccccn2)cc1	> 1 µM	
COc1ccccc1COCCCOc1ccc(N2C(=O)CNC[C@H]2COCc2cccnc2)cc1	> 10 µM	
COc1ccccc1COCCCOc1ccc(N2C(=O)CNC[C@H]2COCc2ccc(Cl)c(C(F)(F)F)c2)cc1	0.594 µM	
COc1ccccc1COCCCOc1ccc(N2C(=O)CNC[C@@H]2COCc2cccc(C(F)(F)F)c2)cc1	0.23 µM	
COc1ccccc1COCCCOc1ccc(N2C(=O)CNC[C@@H]2COCc2ccc(Cl)cc2)cc1	0.3 µM	
COc1ccccc1COCCCOc1ccc(N2C(=O)CNC[C@@H]2COCc2ccc(F)c(F)c2)cc1	0.25 µM	
COc1ccccc1COCCCOc1ccc(N2C(=O)CNC[C@@H]2COCc2cccc(OC(F)(F)F)c2)cc1	0.41 µM	
COc1cccc(COC[C@H]2CNCC(=O)N2c2ccc(OCCCOCc3ccccc3OC)cc2)c1	0.6 µM	
COc1ccccc1COCCCOc1ccc(N2C(=O)CNC[C@@H]2COCc2ccc(Cl)c(C(F)(F)F)c2)cc1	0.12 µM	solubility kinetic [1]: 3 µg/mL (≈ 5.06 µM); logD [2]: 3.7; inhibition at 3 µM (CYP3A4): 97%
COc1ccccc1COCCCOc1ccc(N2C(=O)CNC[C@@H]2COCc2ccccc2OC)cc1	0.9 µM	
COc1ccccc1COCCCOc1ccc(N2C(=O)CNC[C@@H]2COCc2ccccc2F)cc1	0.23 µM	
COc1ccccc1COCCCOc1ccc(N2C(=O)CNC[C@@H]2COCc2ccncc2)cc1	> 1 µM	
COc1ccccc1COCCCOc1ccc(N2C(=O)CNC[C@@H]2COCc2cccc(C(F)(F)F)c2F)cc1	0.27 µM	
COc1ccccc1COCCCOc1ccc(N2C(=O)CNC[C@@H]2COc2ccc3c(c2)N(CCNC(C)=O)CCC3)cc1	0.0004 µM	
COc1ccccc1COCCCOc1ccc(N2C(=O)CNC[C@@H]2COCc2cccnc2)cc1	0.12 µM	solubility kinetic [1]: 100 µg/mL (≈ 203 µM); logD [2]: 2.9; inhibition at 3 µM (CYP3A4): 44%
